Experiment [1] has as its target T1, human 5HT transporter (Homo sapiens, UniProt P31645).
T1 construct: host or cells: HEK cells
The experiment in a line: Binding experiment for 5-HT transporter ([3H]Paroxetine). As to conditions: transfected HEK cell membranes, [3H]Paroxetine; for IC50: read-out: pIC50 5HTT (converted). On the procedure: (§1) The interaction of the compounds of Formula (I) with dopamine-receptors, h5HT-transporter and h5HT1A receptor was assessed in in vitro radioligand binding experiments. In general, a low concentration of a radioligand with a high binding affinity for a particular receptor or transporter is incubated with a sample of a tissue preparation enriched in a particular receptor or transporter or with a preparation of cells expressing cloned human receptors in a buffered medium. During the incubation, the radioligand binds to the receptor or transporter. When equilibrium of binding is reached, the receptor bound radioactivity is separated from the non-bound radioactivity, and the receptor- or transporter-bound activity is counted. The interaction of the test compounds with the receptor is assessed in competition binding experiments. Various concentrations of the test compound are added to the incubation mixture containing the receptor- or transporter preparation and the radioligand. The test compound in proportion to its binding affinity and its concentration inhibits binding of the radioligand.
Frozen human 5HT transporter-transfected HEK cells (Perkin Elmer, Brussels) were thawed and briefly homogenised using an Ultra-Turrax T25 homogeniser prior to dilution to an appropriate protein concentration optimised for specific and non-specific binding. [^3H]Paroxetine (NEN, specific activity 20 Ci/mmol) was diluted in Tris-HCl assay buffer containing NaCl and KCl (50 mM, 120 mM and 5 mM, respectively; pH 7.4) at a concentration of 5 nmol/L. Prepared radioligand (25 μl) was then incubated (60 min, 25° C.) with membrane preparations (200 μl) and with 25 μl of either 10% DMSO control, Inipramine (10^−6 mol/L final concentration), or compound of interest. Membrane-bound activity was detected by filtration through a Packard Filtermate harvester onto Unifilterplates pre-soaked in 0.1% PEI, washing with ice-cold assay buffer (3×4 ml). Filters were dried prior to addition of scintillation fluid and then counting in a Topcount scintillation counter. % Specific bound and competition binding curves were calculated using S-Plus software (Insightful).

Experiment [2] has as its target T2, Human Dopamine D2L receptor (Homo sapiens, UniProt P14416).
T2 construct: expressed in transfected cells; host or cells: CHO cells
The experiment in a line: Binding experiment for dopamine D2 receptor ([3H]Spiperone). As to conditions: D2L-transfected CHO cell membranes; for IC50: read-out: pIC50 D2 (converted). On the procedure:
as §1
Human Dopamine D2L receptor-transfected CHO cells were collected by scraping into ice-cold Tris-HCl buffer (50 mM, pH 7.4). The suspension was centrifuged (23 500×g, 10 min, 4° C.) and pellets stored at −70° C. until required. They were then thawed and briefly homogenised using an Ultra-Turrax T25 homogeniser prior to dilution to an appropriate protein concentration optimised for specific and non-specific binding. [^3H]Spiperone (NEN, specific activity ˜70 Ci/mmol) was diluted in Tris-HCl assay buffer containing NaCl, CaCl2, MgCl2, KCl (50, 120, 2, 1, and 5 mM respectively, adjusted to pH 7.7 with HCl) at a concentration of 2 nmol/L. Prepared radioligand (50 μl) was then incubated (30 min, 37° C.) with membrane preparations pre-diluted to an appropriate protein concentration (400 μl), and with 50 μl of either the 10% DMSO control, Butaclamol (10^−6 mol/L final concentration), or compound of interest. Membrane-bound activity was detected by filtration through a Packard Filtermate harvester onto Unifilterplates, washing with ice-cold Tris-HCl buffer (50 mM; pH8.0; 3×4 ml). Filters were allowed to dry before adding scintillation fluid and counting in a Topcount scintillation counter. % Specific bound and competition binding curves were calculated using S-Plus software (Insightful).

The target in experiment [3] is T3, Human 5HT1A receptor (Homo sapiens, UniProt P08908).
T3 construct: expressed in transfected cells; host or cells: L929 cells (stably transfected)
T3 sequence (P08908 1-422): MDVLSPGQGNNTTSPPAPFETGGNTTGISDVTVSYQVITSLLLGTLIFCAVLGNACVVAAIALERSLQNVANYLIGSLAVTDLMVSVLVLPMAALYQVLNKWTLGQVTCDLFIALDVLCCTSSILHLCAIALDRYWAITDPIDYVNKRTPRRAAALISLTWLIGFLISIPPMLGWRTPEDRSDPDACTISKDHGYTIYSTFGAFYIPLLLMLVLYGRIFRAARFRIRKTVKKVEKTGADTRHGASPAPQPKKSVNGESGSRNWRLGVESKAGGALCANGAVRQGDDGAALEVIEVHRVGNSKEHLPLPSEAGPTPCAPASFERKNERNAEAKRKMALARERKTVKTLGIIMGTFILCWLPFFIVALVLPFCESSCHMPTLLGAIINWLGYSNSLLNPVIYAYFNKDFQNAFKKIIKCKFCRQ
The experiment is described as follows: Binding experiment for 5-HT1A receptor ([3H]8OHDPAT). On the procedure: as §1
Human 5HT1A receptor-transfected L929 cells were collected by scraping into ice-cold Tris-HCl buffer (50 mM, pH 7.4). The suspension was centrifuged (23 500×g, 10 min, 4° C.) and pellets stored at −70° C. until required. They were then thawed and briefly homogenised using an Ultra-Turrax T25 homogeniser prior to dilution to an appropriate protein concentration optimised for specific and non-specific binding. [^3H]80HDPAT (NEN, specific activity 127 Ci/mmol) was diluted in Tris-HCl assay buffer containing CaCl2 (50 mM and 4 mM, respectively; pH 7.7) at a concentration of 5 nmol/L. Prepared radioligand (50 μl) was then incubated (30 min, 37° C.) with membrane preparations from L929 cells stably-transfected with the h5HT1A gene construct (400 μl) and with 50 μl of either the 10% DMSO control, spiroxatrine (10^−6 mol/L final concentration), or compound of interest. Membrane-bound activity was detected by filtration through a Packard Filtermate harvester onto Unifilterplates, washing with ice-cold Tris-HCl buffer (3×4 ml), followed by drying. Scintillation fluid was added and membranes were counted in a Topcount scintillation counter. % Specific bound and competition binding curves were calculated using S-Plus software (Insightful).

The mark [4] stands for this setting: transfected L929 cell membranes, [3H]8OHDPAT.
Setting [5] is: transfected L929 cell membranes, [3H]8OHDPAT, read-out: pIC50 5-HT1A (converted).

Read-outs that look alike come from different tables or passages of the source. Bounds are passed on as bounds.

T1 sequence (P31645 whole entry): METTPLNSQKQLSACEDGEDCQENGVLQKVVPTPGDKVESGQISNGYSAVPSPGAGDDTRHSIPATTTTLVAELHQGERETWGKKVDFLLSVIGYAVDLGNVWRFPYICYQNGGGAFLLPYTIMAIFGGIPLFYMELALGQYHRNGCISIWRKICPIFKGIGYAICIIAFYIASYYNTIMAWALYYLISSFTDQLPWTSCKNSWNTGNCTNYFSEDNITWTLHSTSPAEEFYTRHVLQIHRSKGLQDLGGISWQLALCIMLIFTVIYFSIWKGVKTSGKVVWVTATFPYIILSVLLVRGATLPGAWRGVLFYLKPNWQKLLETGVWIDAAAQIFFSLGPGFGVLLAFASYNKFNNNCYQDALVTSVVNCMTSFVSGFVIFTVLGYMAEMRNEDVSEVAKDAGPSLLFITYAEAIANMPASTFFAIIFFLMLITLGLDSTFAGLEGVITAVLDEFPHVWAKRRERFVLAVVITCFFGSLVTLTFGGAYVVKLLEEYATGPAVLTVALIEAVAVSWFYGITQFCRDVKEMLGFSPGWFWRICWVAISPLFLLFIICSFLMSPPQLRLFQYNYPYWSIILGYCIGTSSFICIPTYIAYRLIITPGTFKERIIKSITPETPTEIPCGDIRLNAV
T2 sequence (P14416 whole entry): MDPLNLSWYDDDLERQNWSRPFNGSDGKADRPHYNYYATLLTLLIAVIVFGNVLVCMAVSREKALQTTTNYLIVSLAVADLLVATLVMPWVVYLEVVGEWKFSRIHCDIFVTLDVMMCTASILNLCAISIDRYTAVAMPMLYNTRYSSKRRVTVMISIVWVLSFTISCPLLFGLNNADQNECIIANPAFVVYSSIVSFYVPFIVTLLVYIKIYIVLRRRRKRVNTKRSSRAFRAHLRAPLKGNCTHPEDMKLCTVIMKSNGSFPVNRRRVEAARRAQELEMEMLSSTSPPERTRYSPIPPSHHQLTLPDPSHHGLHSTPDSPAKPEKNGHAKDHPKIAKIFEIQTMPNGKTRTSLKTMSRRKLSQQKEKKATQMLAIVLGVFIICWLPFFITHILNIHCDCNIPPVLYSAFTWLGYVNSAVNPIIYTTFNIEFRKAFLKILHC

As to `COc1cc2c(cc1OC)C1=NOC(CN3CCC(c4c[nH]c5ccccc45)CC3)C1CO2.O=C(O)C(=O)O` (single isomer, unassigned) [Compound 45], the “pIC50 5HTT” value in experiment [1] is recorded as 6.9. In addition, in experiment [2], the “pIC50 D2” value worked out at 6.3. Moreover, in experiment [3] (setting [4]), the “pIC50 5-HT1A” value amounted to 7.0.
Regarding `COc1ccc2[nH]cc(C3CCN(CC4ON=C5c6cc(OC)c(OC)cc6OCC54)CC3)c2c1` (racemic) [Compound 8], the IC50 in experiment [1] is 1260 nM; in experiment [2] it was > 1000 nM; in experiment [3] (setting [5]), 7.94 nM.
Take `COc1cc2c(cc1OC)C1=NO[C@@H](CN3CCC(n4ccc5ccccc54)CC3)[C@@H]1CO2` (racemic) [Compound 58]: the IC50 in experiment [1] was 631 nM; in experiment [2], 501 nM; in experiment [3] it was 25.1 nM.
Turning to `COc1cc2c(cc1OC)C1=NOC(CN3CCC(c4c[nH]c5ccc(O)cc45)CC3)C1CO2` (racemic) [Compound 54], the figures for the IC50 in experiment [1] and in experiment [2] were 63.1 nM and 398 nM, respectively.
As for `Fc1ccc2c(C3CCN(CC4ON=C5c6ccc(NCCN7CCCC7)cc6OCC54)CC3)c[nH]c2c1` (racemic) [Compound 51], the “pIC50 5HTT” value in experiment [1] is given as 8.2. The “pIC50 D2” value in experiment [2] turned out to be 7.9. Also, the “pIC50 5-HT1A” value in experiment [3] (setting [4]) worked out at 7.7.
Take `COc1cc2c(cc1OC)C1=NOC(CN3CC=C(c4c[nH]c5ccc(NC(C)=O)cc45)CC3)C1CO2` (racemic) [Compound 40]: the values for the IC50 in experiment [1], in experiment [2] and in experiment [3] (setting [5]) were > 10000 nM, > 10000 nM and 3.16 nM, respectively.
Take `Fc1ccc2[nH]cc(C3=CCN(CC4ON=C5c6ccc(N7CCOCC7)cc6OCC54)CC3)c2c1` (racemic) [Compound 55]: the “pIC50 5HTT” value in experiment [1] was 7.5. The “pIC50 D2” value in experiment [2] is on record as 6.3. Moreover, the “pIC50 5-HT1A” value in experiment [3] (setting [4]) is 7.8.
Turning to `COc1cc2c(cc1OC)C1=NOC(CN3CCC(Cc4c[nH]c5ccc(F)cc45)CC3)C1CO2` (racemic) [Compound 57], the “pIC50 5HTT” value in experiment [1] worked out at 8.3. For the same compound, the “pIC50 D2” value in experiment [2] came to 6.3. Also, the “pIC50 5-HT1A” value in experiment [3] (setting [4]) stood at 6.4.
The like results for `COCC(=O)Nc1ccc2[nH]cc(C3=CCN(CC4ON=C5c6cc(OC)c(OC)cc6OCC54)CC3)c2c1` (racemic) [Compound 41] were, in that order, <5, <5 and 8.3.
For the compound `COc1cc2c(cc1OCCOC(C)=O)OCC1C2=NOC1CN1CCC(c2c[nH]c3ccc(F)cc23)CC1` (racemic) [Compound 48], the IC50 is 79.4 nM in experiment [1], 158 nM in experiment [2] and 1.58 nM in experiment [3] (setting [5]).
In the case of `COCCOCOc1cc2c(cc1OC)C1=NOC(CN3CC=C(c4c[nH]c5ccc(F)cc45)CC3)C1CO2` (racemic) [Compound 63], the “pIC50 5HTT” value in experiment [1] is listed as 7.6. Moreover, the “pIC50 D2” value in experiment [2] is recorded as 7.9. In addition, the “pIC50 5-HT1A” value in experiment [3] (setting [4]) worked out at 6.0.
On to `CC(=O)Nc1ccc2c(c1)OCC1C2=NOC1CN1CCC(c2c[nH]c3ccc(F)cc23)CC1` (stereo not drawn) [Compound 46], for which the IC50 in experiment [1] is 50.1 nM; in experiment [2], 316 nM.
For `COc1cc2c(cc1OC)C1=NOC(CN3CCC(c4c[nH]c5ccc(Br)cc45)CC3)C1CO2` (racemic) [Compound 53], in experiment [1], the “pIC50 5HTT” value is reported as 6.4. Moreover, the “pIC50 D2” value in experiment [2] came out at 6.7.
Regarding `COc1cc2c(cc1OCCO)OCC1C2=NOC1CN1CCC(c2c[nH]c3ccc(F)cc23)CC1` (racemic) [Compound 47], the figures for the IC50 in experiment [1] and in experiment [2] were 398 nM and 100 nM, respectively.
For `CCOC(=O)CNC(=O)Nc1ccc2[nH]cc(C3=CCN(CC4ON=C5c6cc(OC)c(OC)cc6OCC54)CC3)c2c1` (racemic) [Compound 39], in experiment [1], the “pIC50 5HTT” value is listed as <5. In experiment [2], the “pIC50 D2” value is recorded as <5. The “pIC50 5-HT1A” value in experiment [3] (setting [4]) amounted to 7.8.
`Fc1ccc2[nH]cc(C3=CCN(CC4ON=C5c6ccc(NCCN7CCCC7)cc6OCC54)CC3)c2c1` (racemic) [Compound 56]: the “pIC50 5HTT” value in experiment [1] stood at 8.1. In addition, in experiment [2], the “pIC50 D2” value worked out at 6.8. Also, the “pIC50 5-HT1A” value in experiment [3] (setting [4]) was found to be 8.1.
As for `CCNC(=O)Nc1ccc2[nH]cc(C3=CCN(CC4ON=C5c6cc(OC)c(OC)cc6OCC54)CC3)c2c1` (racemic) [Compound 37], the figures for the IC50 in experiment [1], in experiment [2] and in experiment [3] (setting [5]) were > 10000 nM, > 10000 nM and 7.94 nM, respectively.
Turning to `COc1cc2c(cc1OC)C1=NOC(CN3CCC(c4coc5cc(F)ccc45)CC3)C1CO2` (stereo not drawn) [Compound 59], the IC50 in experiment [1] was 79.4 nM; in experiment [2], 100 nM; in experiment [3] (setting [5]), 15.8 nM.
Take `CCNC(=O)OCCOc1cc2c(cc1OC)C1=NOC(CN3CCC(c4c[nH]c5ccc(F)cc45)CC3)C1CO2` (racemic) [Compound 50]: the “pIC50 5HTT” value in experiment [1] is 6.9. Besides, the “pIC50 D2” value in experiment [2] came to 6.8. Moreover, the “pIC50 5-HT1A” value in experiment [3] (setting [4]) was 8.6.
`COc1cc2c(cc1OC)C1=NOC(CN3CC=C(c4c[nH]c5ccc(N)cc45)CC3)C1CO2` (stereo not drawn) [Compound 33]: the results for the IC50 in experiment [1], in experiment [2] and in experiment [3] (setting [5]) were 631 nM, 1260 nM and 12.6 nM, respectively.
As to `COCC(=O)OCCOc1cc2c(cc1OC)C1=NOC(CN3CCC(c4c[nH]c5ccc(F)cc45)CC3)C1CO2` (racemic) [Compound 49], the “pIC50 5HTT” value in experiment [1] is listed as 6.9. Also, the “pIC50 D2” value in experiment [2] was 6.7.
Turning to `Fc1ccc2c(C3CCN(CC4ON=C5c6ccc(N7CCOCC7)cc6OCC54)CC3)c[nH]c2c1` (racemic) [Compound 52], the “pIC50 5HTT” value in experiment [1] is recorded as 7.4. Further, in experiment [2], the “pIC50 D2” value stood at 7.5. Further, the “pIC50 5-HT1A” value in experiment [3] (setting [4]) amounted to 7.5.
With `COCCOCOc1ccc2[nH]cc(C3=CCN(CC4ON=C5c6cc(OC)c(OC)cc6OCC54)CC3)c2c1` (stereo not drawn) [Compound 62], the IC50 in experiment [1] is > 10000 nM; in experiment [2], > 10000 nM; in experiment [3] (setting [5]), 63.1 nM.
Turning to `COc1cc2c(cc1OC)C1=NOC(CN3CCC(c4c[nH]c5cc(F)ccc45)CC3)C1CO2` (single isomer, unassigned) [Compound 36], in experiment [1], the “pIC50 5HTT” value came out at 6.8. For the same compound, the “pIC50 D2” value in experiment [2] is on record as 7.5. For the same compound, the “pIC50 5-HT1A” value in experiment [3] (setting [4]) came out at 8.0.
For the compound `Nc1ccc2c(c1)OCC1C2=NOC1CN1CC=C(c2c[nH]c3ccc(F)cc23)CC1` (racemic) [Compound 61], the “pIC50 5HTT” value in experiment [1] is 6.9. Also, the “pIC50 5-HT1A” value in experiment [3] (setting [4]) stood at 7.3.

The record behind these values is US7635696B2, “Isoxazoline-indole derivatives with an improved antipsychotic and anxiolytic activity” (Janssen Pharmaceutica N.V., priority 2004, dated 2009).
